Assays:
neuronal cells = test: Intracellular calcium level [Ca2+]i in primary neurons (Fura-2 fluorescence ratio 340/380 nm); assay type: cell-based, rat
Text: Material: The same materials as described in Perovic et al. (1998, Mech. Ageing Dev. 101:1-19) were used. Fura-2-acetoxymethylester (Fura-2-AM) was obtained from Molecular Probes (Leiden, The Netherlands), Dulbecco's modified Eagle's Medium with 4.5 g/L glucose (DMEM/HG), L-glutamic acid (L-Glu), and serotonin (5-HT) from Sigma-Aldrich (Taufkirchen, Germany) and the antibodies mouse-anti-neurofilament (68 kDa) and mouse-anti-glial-fibrillary-acidic-protein (GFAP) from Roche Diagnostics (Mannheim, Germany). Sorbicillactone A of the batch: 2208/2a was used.
Primary neurons: The cortical cell culture was produced from the brains of 17-18 day-old rat embryos, according to a modified procedure [Freshney (1987) Culture of specific cell types. In: Culture of Animal Cells. A Manual of Basic Technique, A. R. Liss, New York, S. 257-288; Perovic et al. (1994) Eur. J. Pharmacol. (Mol. Pharmacol. Sec.) 288:27-33]. After the isolation, the cerebral-hemispheres were put into Hank's Balanced Salt Solution (HBSS) without Ca^2+ and Mg^2+, and the neuronal cells were subsequently dissociated in HBSS using 0.025% (w/v) trypsin (10 min.; 37° C.). The proteolytic reaction was stopped with 10% (v/v) foetal calf serum (FCS). The single-cell suspensions were centrifuged, and the resulting pellet was taken up into Dulbecco's modified Eagles's Medium with 4.5 g/L glucose (DMEM/HG) (contains 2 mM L-glutamine, 100 mU/L insulin, and 10% (v/v) FCS). The cells were plated in a chamber with poly-L-lysine (5 μg/mL, 300 μl/cm^2) in a cell density of 2.0×10^5 cells/cm^2. After two days the DMEM/HG/10%-FCS-medium was removed and replaced with DMEM/HG/serum-free medium. Two weeks after the isolation, the immune staining took place with anti-neurofilament (68 kDa) as a marker for neurons, and anti-GFAP as a marker for glial cells. The cultures contained >80% neurons; the residual 20% were GFAP-positive cells, mainly astrocytes (Ushijima et al. (1995) Eur. J. Neurosci. 7:1353-9). The neurons were held in an atmosphere of 95% air and 5% CO2 at 37° C.
Loading of neurons with Fura-2-AM: The intracellular Ca^2+-concentration ([Ca^2+]i) was determined by fluorescence measurements. The ratio of the absorption of the Ca^2+-indicator dye Fura-2-AM at 340 and 380 nm (Grynkiewicz et al. (1985) J. Biol. Chem. 260:3440-50) was decisive. The neurons were loaded with 6 μM Fura-2-AM in DMEM/HG/serum-free medium (supplemented with 1% (w/v) bovine serum albumin) at 37° C. for 60 min. After incubation, the cells were washed two times with medium, and further incubated for 45 min at 37° C.
Calcium-calibration curve: A calcium-calibration curve was produced according to the methods of Grynkiewicz et al. (1985, J. Biol. Chem. 260:3440-50). Fluorescence pictures were obtained for each buffer at 340 and 380 nm. The quotient from both fluorescence spectra (340/380 nm) was calculated, and depicted as a calibration curve. The quotient (340/380 nm [ratio-value]) of 1.0 corresponds to 228 nM [Ca^2+]i.
Changes of the calcium level in neurons: In all experimental settings, the cells were first loaded with Fura-2-AM, and subsequently stimulated with different substances (in Locke's solution; 154 mM NaCl; 5.6 mM KCl; 3.6 mM NaHCO3; 5.6 mM glucose, and 10 mM Hepes; pH 7.4; without CaCl2). Sorbicillactone A was dissolved in a concentration of 10 mg/mL in 100% (v/v) DMSO, and stored at −20° C. In the first setting, the neurons were stimulated for 5 min with 0.1% (v/v) DMSO (control); after 10 min 200 μM L-glutamic acid (L-Glu), 200 μM serotonin (5-HT), and 2.5 mM CaCl2 were added to the cells. In a second setting, the effect of L-Glu, 5-HT, and 2.5 mM CaCl2 on the calcium level of pre-incubated neurons (each 5 min with 10 μg/mL sorbicillactone A) was tested. In all experiments, the [Ca^2+]i-level was measured for at least 20-25 min. […]

[1] = tested on: L5178Y mouse-lymphoma cells (ATCC CRL 1722); test: Genotoxicity: Fast Microassay (strand scission factors, PicoGreen); assay type: cell-based
Description: Material: PicoGreen was obtained from Molecular Probes (Leiden, The Netherlands), RPMI1640-medium from Sigma-Aldrich (Taufkirchen, Germany), foetal calf serum (FKS) from Gibco (Karlsruhe, Germany), and black microtitre-plates (96-well-plates) from Nunc (Wiesbaden, Germany). Sorbicillactone A of the batch: 2208/2a was used.
Cells: The genotoxicity of sorbicillactone A was tested on L5178Y mouse-lymphoma cells (ATCC CRL 1722). As described (Müller et al., 1979, Cancer Res. 39:1102-1107), the cells were cultured in RPMI1640-medium supplemented with 10% foetal calf serum (FCS). 10^4 cells/mL were chosen as the inoculum concentration. The cells were incubated for 4 and 24 hours with 1, 3, 10, and 30 μg/mL of sorbicillactone A (1). Following the incubation, the cells were examined with the “Fast Microassay”.
“Fast Microassay”: The method was performed according to a modified method (Batel et al., 1999, Anal. Biochem., 270:195-200). The cells were washed with 1×PBS for two times. After centrifugation, the pellet was taken up in 1×PBS and diluted to […]. 25 μl each of the cell suspension (about 2.5×10^4 cells per well) were pre-pipetted into black microtitre-plates (96-well-plates, Nunc, Wiesbaden). 25 μl 1×PBS were in the controls. Then, 25 μl of lysis solution (7 M urea, 0.1% (w/v) SDS, 0.2 M EDTA, pH=10.0) with PicoGreen (20 μl conc. PicoGreen per 1 mL of lysis solution) were pipetted into the microtitre-plate. Subsequently, the cells were lysed for 40 min in the dark at room temperature. After the incubation, the denaturation (unwinding) of the DNA occurs by the addition of freshly prepared alkaline solution. This is produced in that 20 mL 20 mM of EDTA, and 32 mL of 20 mM EDTA/100 mM NaOH are adjusted to a pH-value of 12.3. The measurement took place immediately in a fluoroscan at an excitation wavelength of 485 nm, and an emission wavelength of 520 nm, every 3 to 5 min, 20 min in total. The results were given as “strand scission factors” (SSF), and calculated following a time of denaturation (time of unwinding) of 20 min according to the following equation: SSF=log (% dsDNA-sample/% dsDNA-control).

C/C=C/C=C/C(O)=C1/C(=O)C(C)=C(O)[C@@]2(C)OC(=O)[C@@](C)(NC(=O)/C=C/C(=O)O)[C@@H]12 [sorbicillactone A]
effect on [Ca2+]i in neuronal cells (neuronal cells; 10 μg/mL sorbicillactone A alone): nearly no effect
reduction in the [Ca2+]i-level (neuronal cells; pre-incubation 5 min with 10 μg/mL, then 200 μM L-Glu and 2.5 mM CaCl2, p<0.001, FIG. 1A): 46.7%
reduction of the free calcium concentration compared to the control (neuronal cells; pre-incubation with 10 μg/mL, then 200 μM 5-HT and 2.5 mM CaCl2, FIG. 1B): 77.6%
induction of DNA-strand scissions ([1]; 30 μg/mL, 24 hours of incubation): induced DNA-strand scissions
effect on the SSF-values (strand scission factors) ([1]; 1, 3, 10, and 30 μg/mL, 4 hours of incubation, FIG. 3A): nearly no effect
increase of the SSF-values ([1]; 1 to 10 μg/mL, 24 hours): slight, but no significant, increase
increase of the SSF-values (portion of DNA-strand scissions) ([1]; 3 and 30 μg/mL, 24 hours, p<0.001, FIG. 3B): significant increase
